Reference: patent publication US9358276B2, “Methods of diagnosing and treating small intestinal bacterial overgrowth (SIBO) and SIBO-related conditions” (Cedars-Sinai Medical Center, priority 1999, dated 2016)

Columns and labels:
[1] = tested on: isolated segment of guinea pig colon; conditions: Wade et al. 1996; slower as dose increased; cited from earlier work
intestinal transit = assay: Intestinal transit in multi-fistulated dogs, cumulative % recovery of 99mTc-DTPA; type: in vivo, dog; conditions: n=2
Description: The experiments described below are based on a previously described chronic multi-fistulated dog model, employing surgically fistulated male or female mongrel dogs weighing about 25 kg each. (Lin, H. C. et al., Inhibition of gastric emptying by glucose depends on length of intestine exposed to nutrient, Am. J. Physiol. 256:G404-G411 [1989]). The small intestines of the dogs were each about 300 cm long from the pylorus to the ileal-cecal valve. The duodenal fistula was situated 15 cm from the pylorus; the mid-gut fistula was situated 160 cm from the pylorus. Occluding Foley catheters (balloon catheters that are inflated to produce a water-tight seal with the lumenal surface) were placed into the distal limb of a duodenal fistula and a mid-gut fistula, fat or other test agents were administered lumenally to the thus compartmentalized Aproximal≅ section of the gut, i.e., between the fistulas, or to the compartmentalized Adistal≅ section of the gut, i.e., beyond the mid-gut fistula. Perfusate was pumped into a test section through the catheter at a rate of 2 mL/minute. Test agents were administered along with buffer perfusate, but some test agents were administered intravenously, where specifically noted.
Intestinal transit measurements were made by tracking the movement of a liquid marker across the approximately 150 cm intestinal test segment by delivering about 20 μCi ^99mTc chelated to diethyltriamine pentaacetic acid (DTPA)(Cunningham, K. M. et al., Use of technicium-99m (V)thiocyanate to measure gastric emptying of fat, J. Nucl. Med. 32:878-881 [1991]) as a bolus into the test segment after 60 minutes of a 90-minute perfusion. The output from the mid-gut fistula was collected every 5 min thereafter for 30 minutes, which period is illustrated in FIGS. 9-23. Using a matched dose of ^99mTc to represent the original radioactivity (Johansson, C., Studies of gastrointestinal interactions, Scand. J. Gastroenterol. 9(Suppl 28):1-60 [1974]; Zierler, K., A simplified explanation of the theory of indicator dilution for measurement of fluid flow and volume and other distributive phenomena, Bull. John Hopkins 103:199-217 [1958]), the radioactivity delivered into the animal as well as the radioactivity of the recovered fistula output were all measured using a gamma well counter. After correcting all counts to time zero, intestinal transit was calculated as the cumulative percent recovery of the delivered ^99mTc-DTPA. This method has been well validated over the years and appreciated for its advantage of minimal inadvertent marker loss. […] There was a very high level of marker recovery, with 90% of the marker recovered by 30 minutes and 98% of the marker recovered by 45 minutes.

[2] = tested on: release of 5-HT from the proximal gut; assay: 5-HT released by the proximal gut (ELISA of mid-gut fistula output); type: in vivo, dog; conditions: intravenous PYY (0.8 mg/kg/h); Control 140.1 μg
Description: To test the hypothesis that fat in the distal gut causes the release of 5-HT in the proximal gut, the amount of 5-HT collected from the output of the mid-gut fistula (proximal gut 5-HT) over a 90-minute period of buffer perfusion through both the duodenal and mid-gut fistulas (2 mL/min); buffer (control) or oleate (60 mM) was administered to the distal gut (n=1). The amount of 5-HT was determined using an ELISA kit specific for 5-HT (Sigma; Graham-Smith, D. G., The carcinoid syndrome, In: Topics in Gastroenterology, Truclove, S. C. and Lee, E. (eds.), Blackwells, London, p. 275 [1977]; Singh, S. M. et al., Concentrations of serotonin in plasma-a test for appendicitis?, Clin. Chem. 34:2572-2574 [1988]). The amount of 5-HT released by the proximal gut increased in response to fat in the distal gut from 100 μg in the control (buffer minus oleate) to 338 μg (buffer plus oleate to distal gut), showing that 5-HT is released in the proximal gut in response to fat in the distal gut. Thus, the release of 5-HT by the proximal gut can serve as a relayed signal for fat in the distal gut. The relayed release of 5-HT in the proximal gut in response to fat in the distal gut is consistent with Example 14(2), showing that slowing of intestinal transit by fat depends on an efferent 5-HT-mediated pathway to the proximal gut.
To test the hypothesis that 5-HT in the distal gut causes the release of 5-HT in the proximal gut, the amount of 5-HT collected from the output at the mid-gut fistula (Proximal gut 5-HT) over a 90-minute period of buffer perfusion through both the duodenal and mid-gut fistulas (2 mL/min each) was compared in the presence or absence of 5-HT (0.05 mg/kg/h) administered to the distal gut (n=1). 5-HT concentration was determined using an ELISA kit specific for 5-HT (Sigma). The amount of 5-HT released by the proximal gut increased from 156 μg in the control (minus distal 5-HT) to 450 μg (plus 5-HT to distal gut), implying that 5-HT is released by the proximal gut in response to 5-HT in the distal gut. Thus, the release of 5-HT by the proximal gut can serve as a relayed signal for distal gut 5-HT. This relayed release of 5-HT in the proximal gut explains the results of Example 14(6) showing that the slowing of intestinal transit by distal gut 5-HT was abolished by ondansetron in the proximal gut (efferent limb of response) as well as in the distal gut (afferent limb of response).
To test the hypothesis that the proximal gut releases 5-HT in response to lipid in the distal gut, we compared the amount of 5-HT in the output of the midgut fistula (i.e., proximal gut 5-HT) with buffered saline (control) or oleate in the distal gut. The amount of 5-HT collected over 90 min was measured using a 5-HT-specific ELISA test kit, as described herein above. Four dogs were tested.
The amount of 5-HT released from the proximal gut in response to intravenous PYY or buffered saline (Control) during buffer perfusion (2 mL/min over 90 minutes) through both the duodenal and mid-gut fistulas was measured to test the hypothesis that intravenous PYY (0.8 mg/kg/h) causes the release of 5-HT in the proximal gut. 5-HT was measured as in Example 14(9) above. The amount of 5-HT released by the proximal gut increased from 140.1 μg (Control) to 463.1 μg in response to intravenous PYY.

isolated canine ileum = conditions: infused into isolated canine ileum; Fox-Threlkeld et al. 1993; cited from earlier work

| Molecule | passage of a pellet through an isolated segment of guinea pig colon [1] | marker recovery (intestinal transit; 30 μg PYY (0.8 mg/kg/h) intravenously, Buffer Control 78.1±2.2%) | marker recovery (intestinal transit; IV PYY 0.8 μg/kg/h + lumenal normal saline, control 75.1±3.6%) | amount of 5-HT released by the proximal gut [2] | phasic circular muscle activity (isolated canine ileum) |
| --- | --- | --- | --- | --- | --- |
| CNCCC(Oc1ccc(C(F)(F)F)cc1)c1ccccc1 (centres unmarked) [fluoxetine] | initially accelerated |  |  |  |  |
| PYY: Peptide YY, a physiological fat signal molecule that slows transit |  | 11.8±5.4% | 17.1±11.0% | 463.1 µg | dose-dependently increased |
